Measured values published in patent publication US5912259A, “Method for treating and preventing neurodegenerative disorders by administering a thiazolidinone” (Warner-Lambert Company, priority 1998, dated 1999).
Where two headings read alike, the source gives them in different places.

What was measured:
[1] = Toxicology studies in dogs; format: in vivo, dog
Procedure: (§1) As noted above, the thiazolidinone is additionally well-suited to treating elderly patients because of its long duration of action and its substantial lack of undesirable side effects. Toxicologic properties of the thiazolidinone were evaluated in single-dose oral and intravenous (IV) studies in mice and rats and multidose oral studies in rats and dogs. The thiazolidinone was tested in dogs and monkeys in escalating-dose oral toxicity to determine the most sensitive nonrodent species. […] The initial 13-week dog study was repeated to evaluate the reproducibility of the perivascular effects. Dose range-finding studies were performed in pregnant rats and rabbits, and genotoxic potential was assessed in vitro and in vivo. […] Based on exposure at the no-effect dose in definitive studies, the rat appears to be the most sensitive species followed by the dog and the monkey, albeit with minor differences in exposure between the species.

[2] = system: nitric oxide synthase, mixed cortical cultures; assay: Nitric oxide synthase activity / NO production in mixed cortical cultures; format: cell-based, fetal Sprague-Dawley rat
Procedure: (§2) BV-2 microglia were grown in 6-well tissue culture plates in DMEM/F12 media supplemented with 10% fetal calf serum. Prior to activation, cells were given fresh media containing various amounts of thiazolidinone. One hour after drug treatment, microglia were activated with lipopolysaccharide (LPS, 4 μg/mL) and placed in an incubator at 37° C. in an atmosphere containing 5% CO2. After 16 hours, cultures were evaluated for inducible nitric oxide synthase (iNOS) activity and expression. iNOS activity was determined using the Griess reaction. Cell-free culture media was mixed with an equal volume of Griess reagent (one volume of 1.0% sulfanilamide in 5% phosphoric acid mixed with one volume of 0.1% naphthylenediamine dihydrochloride in water) and incubated for 5 minutes at room temperature. Absorbance was measured at 560 nm and the concentration within a sample was determined using sodium nitrite as standard. iNOS expression was evaluated by extracting cellular protein and performing Western blot analysis using a monoclonal antibody specific for iNOS.
Experiments using mixed cortical cultures were performed as described above. […]
Cerebral ischemia can be modeled in vitro by lowering oxygen and glucose in the media of cortical neurons. […] Cultures were read every 2 to 3 days thereafter by half volume (100 μL) replacement with DME/F12 (10% horse serum).

E-selectin = assay: Cell-surface expression of E-selectin; format: cell-based
iNOS, BV-2 microglia = assay: iNOS expression in LPS-activated BV-2 microglia (Western blot); format: cell-based
Procedure: as §2

NMDA-induced injury = conditions: for percent protection against NMDA-induced injury: 15 minutes and 2.25 hours after NMDA
Procedure: Intrastriatal injections of NMDA (15 nmol/0.5 μL) were performed in male and female Sprague-Dawley rat pups (Charles River Laboratory, Portage, Mich.) on Postnatal Day (PND) 7. The animals were anesthetized with ether, and the calvarium was exposed by a midline incision through the skin. The rat pups were placed in a plaster of paris mold that was secured to a small animal stereotaxic instrument (Kopf Instruments). NMDA (Sigma) was dissolved in 0.1 M phosphate-buffered saline (PBS) adjusted to pH 7.4 with 1 N NaOH. Injections of NMDA ([…]) were placed in the middle of the right posterior corpus striatum (coordinates relative to Bregma; AP -2.0 mm, ML 2.5 mm, at a depth of 4.0 mm from the dura) with a 26-gauge Hamilton syringe. The syringe was left in place for 2 minutes following the injections to limit leakage. Temperature of the animals was kept constant after surgery in a thermostatically controlled environment (HovaBator chick incubator; BFG Corp., Savannah, Ga.) set at 35° C. to 36° C. for 1 hour after the last drug or vehicle injection. Drug solutions were prepared in PBS and injected intraperitoneally (0.05 mL volume) 15 minutes, and 2.25 hours after intrastriatal injection of NMDA. Control animals received equal volumes of PBS.
After surgery, all animals were returned to the mothers for 5 days, and decapitated on PND 12. The brains were removed, the cerebral hemispheres were separated, and wet weights of each hemisphere were determined individually. Differences of the hemispheric weights were compared for each animal using the formula: 100×(C-I/C)=percent damage, a value that indicates the severity of damage of the injected (I) cerebral hemisphere relative to that of the uninjected contralateral (C) hemisphere. Percent protection is used to indicate the relative protection of the neuroprotective compound compared to the control and was calculated as: 100×[1-(% damagetreated /% damagecontrol)]. Data were expressed as mean percent damage±S.E.M. in all groups. Independent t-tests were used for statistical comparisons.

[3] = General pharmacokinetic and tolerability properties
cortical neurons = assay: Hypoxia/hypoglycemia-induced death of cortical neurons (LDH); format: cell-based, fetal Sprague-Dawley rat
Excerpt: Cerebral ischemia can be modeled in vitro by lowering oxygen and glucose in the media of cortical neurons. For this study, cortical neurons were isolated from fetal Sprague-Dawley rat brains on Day E18. Cortical hemispheres were sectioned, dissociated, and triturated in Hank's Balanced Salt Solution (HBSS) containing 0.1% trypsin. Cell concentration was adjusted to 620,000 cells/mL by the addition of Dulbecoo's Modified Eagles Medium (DME) and Ham's Nutrient mixture F-12 (F12) 1:1 supplemented with heat-inactivated 10% horse serum and 6% fetal calf serum. A 100 μL aliquot of cell suspension was pipetted into each individual well of a 96-well polyethylenimine-coated culture plate. After 4 days in an incubator at 37° C. in an atmosphere of 8% CO2,100 μL medium was drawn off from each well and replaced with 100 μL of DME/F12 with 10% horse serum to which 30 μg/mL 5-fluoro-2-deoxyuridine and 70 μg/mL uridine were added to prevent further division of the glial cells. Cultures were read every 2 to 3 days thereafter by half volume (100 μL) replacement with DME/F12 (10% horse serum).
Cells were exposed to an hypoxic/hypoglycemic environment (91% N2 /[…] /1% O2, 1 mM glucose, 37° C.) for varying times in 50 μL HBSS. Cultures were then returned to the normoxic incubator (21% O2 /8% CO2,25 mM glucose) and quantitative assessment of cell death made 24 hours later by measurement of the intracellular enzyme lactate dehydrogenase (LDH). Cells were exposed for 1 hour to the thiazolidinone or other drugs prior to the induction of hypoxia/hypoglycemia.

[4] = Toxicology studies in rats; format: in vivo, rat
Procedure: as §1

ICAM-1 = assay: Cell-surface expression of ICAM-1; format: cell-based
[5] = Systemic exposure in rats; conditions: rat, in vivo, 10 mg/kg
Procedure: as §1

[6] = rats, definitive 13-week studies

## CC(C)(C)c1cc(/C=C2\SC(N)=NC2=O)cc(C(C)(C)C)c1O [CI-1004, (Z)-5-[[3,5-bis(1,1-dimethylethyl)-4-hydroxyphenyl]methylene]-2-imino-4-thiazolidinone methanesulfonate]
[1]
  hepatic enzyme induction: hepatic enzyme induction which was not associated with overt organ toxicity
[1]; definitive 13-week studies
  gastrointestinal effects: gastrointestinal effects
[1]; initial 13-week study
  perivascular mononuclear infiltrates in brain: perivascular mononuclear infiltrates in brain were observed
[2]; 10 μM, LPS-activated
  increase in nitric oxide synthase activity on LPS activation: prevented the increase in nitric oxide synthase activity
[2]; non-LPS activated cultures
  basal NO production: significant decrease in basal NO production
E-selectin
  cell-surface expression of E-selectin: blocks
iNOS, BV-2 microglia
  iNOS protein expression: decrease in protein expression
NMDA-induced injury; 2×10 mg/kg i.p., p<0.04
  percent protection against NMDA-induced injury: 28.1±9.2%
NMDA-induced injury; 2×30 mg/kg i.p., p<0.001
  percent protection against NMDA-induced injury: 49±8.2%
NMDA-induced injury; rat, in vivo, 30 mg/kg
  survival to PND 12: One animal dosed with thiazolidinone (2×30 mg/kg) did not survive to PND 12
[3]
  GI tract and kidney tolerability: relatively benign to the GI tract and kidneys
  blood-brain barrier passage: readily crosses the blood-brain barrier
  half-life: relatively long half-life
Cortical neurons; 1 μM
  duration of hypoxia/hypoglycemia before loss of viability: no effect
Cortical neurons; 10 μM
  duration of hypoxia/hypoglycemia before loss of viability: significantly increased the duration of hypoxia/hypoglycemia before the cells lost viability
Cortical neurons; 10 μM, 4 hours of exposure, control approximately 50% killed
  neuronal death after hypoxia/hypoglycemia: no neuronal death
[4]; female rats, 10 mg/kg
  renal effects: Renal effects were seen
[4]; male rats, 10 mg/kg
  toxic effects: No effects were observed
[4]; rats
  hepatic enzyme induction: hepatic enzyme induction which was not associated with overt organ toxicity
[4]; [6]
  gastrointestinal effects: gastrointestinal effects
  renal effects: minor renal effects
ICAM-1
  cell-surface expression of ICAM-1: blocks
[5]
  Cmax and AUC relative to male rats at the same dose: approximately twice those in male rats at the same dose
[5]; po
  Cmax: 970 ng/mL
[5]; po, male rats
  AUC(0-t) at 24 h: 16500 ng·h/mL
